Measurements published in US7652044B2, “P-38 inhibitors” (Novartis A.G., priority 2003, dated 2010).

The compounds below were run against T1, p38α kinase (Homo sapiens, UniProt Q16539) (assay: p38α assay (enzyme inhibition)).
T1 construct: purchased Upstate
Assay type: biochemical
Description: Compound inhibitory activity was measured in a radioactive enzyme assay. The buffer composition was adopted from Lisnock et al (Biochemistry, 1998, vol. 37, pp 16573-16581). Peptide substrate was selected from Chen et al (Biochemistry, 2000, vol. 39, 2079-2087). The concentrations of p38α, [γ-^33P-ATP] and peptide were equal 1 nM, 85 uM and 250 uM, respectively. Incorporation of ^33P into peptide was measured using absorption on filtermats with subsequent wash with 100 mM phosphoric acid followed by ethanol.
cDNAs of human p38α and β were cloned by PCR. The α and β cDNAs were subcloned into DEST2 plasmid (Gateway, InVitrogen). His6-p38 fusion protein was expressed in E. coli and purified from bacterial lysates by affinity chromatography using Ni^+2-NTA-agarose. His6-p38 protein was activated by incubating with constitutively active MKK6. Active p38 was separated from MKK6 by affinity chromatography. Constitutively active MKK6 was generated in a manner similar to Raingeaud et al. (Mol. Cell. Biol., 1247-1255 (1996)).
The p38α assay employed is based on measurement of ADP released in the reaction of interest through NADH oxidation obtained by coupling with pyruvate kinase and lactate dehydrogenase reactions. The assays were performed in 384-well UV-plates. The final volume was 25 uL prepared from the addition of 2.5 uL compound dissolved in 10% DMSO, 17.5 uL of assay buffer and 5 uL of ATP. Assay buffer contains the following reagents to give final concentration in the assay: 25 mM HEPES, 20 mM 2-glycerophosphate, pH 7.6, 10 mM MgCl2, 0.1 mM sodium orthovanadate, 0.5 mM phosphoenolpyruvate, 0.12 mM NADH, 3.1 mg/ml LDH, 6.67 mg/ml pyruvate kinase, 0.25 mM peptide substrate, 2 mM DTT, 0.005% Tween 80 and 20 nM p38α kinase from Upstate. Test compounds are preincubated with p38α kinase for 60 min and the reaction started by addition of ATP to 0.15 mM final concentration. Reaction rates were measured at 340 nm using SpectraMax plate-reading spectrophotometer for 10 min at 37° C. Inhibition data were analyzed by non-linear least-squares regression using SigmaPlot.

T1 sequence (Q16539 whole entry): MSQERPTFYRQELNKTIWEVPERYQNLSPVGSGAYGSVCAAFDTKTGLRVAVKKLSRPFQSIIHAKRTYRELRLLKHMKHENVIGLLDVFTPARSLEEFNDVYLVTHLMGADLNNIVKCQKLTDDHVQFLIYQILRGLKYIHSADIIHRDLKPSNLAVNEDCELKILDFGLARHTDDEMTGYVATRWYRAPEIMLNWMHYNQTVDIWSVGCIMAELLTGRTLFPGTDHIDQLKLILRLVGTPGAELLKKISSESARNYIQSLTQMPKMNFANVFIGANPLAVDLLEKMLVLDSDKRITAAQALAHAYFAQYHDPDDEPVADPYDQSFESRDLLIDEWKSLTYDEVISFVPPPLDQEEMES

| Structure (SMILES) | IC50 [nM] |
| --- | --- |
| Cc1ccc(C(=O)NC2CC2)cc1Nc1nc(-c2cccc(C#N)c2)c(C(=O)NCc2ccccc2)s1 [Compound 28-9, 4-(3-Cyano-phenyl)-2-(5-cyclopropyl-carbamoyl-2-methyl-phenylamino)thia-zole-5-carboxylic acid benzylamide] | 50 to 100 |
| Cc1ccc(C(=O)NC2CC2)cc1Nc1nc(-c2ccc3[nH]ccc3c2)c(C(=O)NCc2ccccc2)s1 [Compound 28-40, 2-(5-Cyclopropylcar-bamoyl-2-methyl-phenylamino)-4-(1H-indol-5-yl)-thiazole-5-carboxylic acid benzylamide] | > 100 |
| CONC(=O)c1ccc(C)c(Nc2nnc(-c3ccccc3)[nH]2)c1 [Compound 1, N-methoxy-4-methyl-3-(5-phenyl-4H-[1,2,4]triazol-3-ylamino)-benzamide] | < 50 |
| Cc1ccc(C(=O)NC2CC2)cc1Nc1ncc(C(=O)NCc2ccccc2)s1 [Compound 26, 2-(5-Cyclopropylcarbamoyl-2-methyl-phenylamino)-thiazole-5-carboxylic acid benzylamide] | < 50 |
| Cc1cccc(-c2nc(Nc3cc(C(=O)NC4CC4)ccc3C)sc2C(=O)NCc2ccccc2)c1 [Compound 28-6, 2-(5-Cyclopropylcar-bamoyl-2-methyl-phenylamino)-4-m-tolyl-thiazole-5-carboxylic acid benzylamide] | 50 to 100 |
| CONC(=O)c1ccc(C)c(Nc2noc(-c3ccccc3)n2)c1 [Compound 2, N-methoxy-4-methyl-3-(5-phenyl-[1,2,4]oxadiazol-3-ylamino)-benzamide] | < 50 |
| Cc1ccc(C(=O)NC2CC2)cc1Nc1nc(-c2cccc(CN)c2)c(C(=O)NCc2ccccc2)s1 [Compound 28-24, 4-(3-Aminomethyl-phenyl)-2-(5-cyclo-propylcarbamoyl-2-methylphenylamino) thiazole-5-carboxylic acid benzylamide] | < 50 |
| Cc1ccc(C(=O)NC2CC2)cc1Nc1nc(-c2ccccc2)cs1 [Compound 3, N-Cyclopropyl-4-methyl-3-(4-phenyl-thiazol-2-ylamino)-benzamide] | > 100 |
